Structures are written as SMILES.

The target in the assay is Ribonucleotide reductase (Homo sapiens, UniProt P23921+Q7LG56). Briefly: Human RNR Inhibition Effect: The inhibitory activity against the ribonucleotide reduction reaction (hereinafter referred to as RNR reaction) of the test compound was determined by measuring the formation of deoxycytidine diphosphate (hereinafter referred to as dCDP) from cytidine diphosphate (hereinafter referred to as CDP) by the following method.Human M1 subunit and human M2 subunit (mutant ….
Sequence of Ribonucleotide reductase (P23921 whole entry, looked up): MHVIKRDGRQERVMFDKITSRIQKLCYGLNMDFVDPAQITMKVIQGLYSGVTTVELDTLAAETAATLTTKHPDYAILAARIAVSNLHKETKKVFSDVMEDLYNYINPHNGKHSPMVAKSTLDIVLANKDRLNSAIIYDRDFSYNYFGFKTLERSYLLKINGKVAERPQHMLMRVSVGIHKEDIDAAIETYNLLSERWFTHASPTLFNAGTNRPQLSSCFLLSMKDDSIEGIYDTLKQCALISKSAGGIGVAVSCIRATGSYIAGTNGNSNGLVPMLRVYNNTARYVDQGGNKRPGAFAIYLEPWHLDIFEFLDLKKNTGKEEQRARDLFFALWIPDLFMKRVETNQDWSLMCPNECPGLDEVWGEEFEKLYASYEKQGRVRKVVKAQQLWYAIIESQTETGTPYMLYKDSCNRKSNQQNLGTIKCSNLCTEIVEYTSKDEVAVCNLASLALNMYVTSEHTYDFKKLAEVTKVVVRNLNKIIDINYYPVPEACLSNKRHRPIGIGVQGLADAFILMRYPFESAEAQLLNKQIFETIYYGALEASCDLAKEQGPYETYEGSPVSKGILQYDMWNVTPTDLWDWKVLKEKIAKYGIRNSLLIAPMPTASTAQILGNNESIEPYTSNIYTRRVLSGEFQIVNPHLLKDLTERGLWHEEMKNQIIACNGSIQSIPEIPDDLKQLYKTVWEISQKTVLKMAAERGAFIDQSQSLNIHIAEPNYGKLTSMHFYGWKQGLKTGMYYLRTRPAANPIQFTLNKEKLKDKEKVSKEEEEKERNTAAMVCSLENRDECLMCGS
Sequence of Ribonucleotide reductase (Q7LG56 whole entry, looked up): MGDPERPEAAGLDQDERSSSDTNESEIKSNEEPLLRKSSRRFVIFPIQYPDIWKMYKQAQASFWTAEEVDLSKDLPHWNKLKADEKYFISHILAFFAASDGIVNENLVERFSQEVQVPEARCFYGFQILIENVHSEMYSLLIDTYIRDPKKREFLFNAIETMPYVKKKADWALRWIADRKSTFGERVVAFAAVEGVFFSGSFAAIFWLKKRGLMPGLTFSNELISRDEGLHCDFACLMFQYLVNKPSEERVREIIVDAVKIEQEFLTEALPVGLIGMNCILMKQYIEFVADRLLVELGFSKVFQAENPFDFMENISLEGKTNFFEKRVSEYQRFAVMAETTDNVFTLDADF
One may read the IC50 as the concentration that gives 50% inhibition. Regarding `Cc1ccc(F)c([C@@H](C)[C@H](NS(=O)(=O)c2ccc3c(c2)C(C)(O)CCC3)c2n[nH]c(=O)o2)c1C` (some centres not stated), the half-inhibitory concentration (IC50) is 360 nM.
For `CC(O)c1nc(S(=O)(=O)N[C@H](c2n[nH]c(=O)o2)[C@H](C)c2cccc3c2CCC3)ccc1Cl` (some centres not stated) the value was 400 nM.
Regarding `Cc1ccc(F)c([C@@H](C)[C@H](NS(=O)(=O)c2ccc3c(c2)CCCO3)c2n[nH]c(=O)o2)c1C`, the IC50 stood at 320 nM.
Molecule `Cc1ccc(F)c([C@@H](C)[C@H](NS(=O)(=O)c2ncc(Br)cc2C(=O)O)c2n[nH]c(=O)o2)c1C` registered a half-inhibitory concentration (IC50) of 990 nM. This IC50 is about 3.1-fold higher than that of the molecule before.
For `Cc1ccc(F)c([C@@H](C)[C@H](NS(=O)(=O)c2ccc(Cl)c(C(C)(C)O)n2)c2n[nH]c(=O)o2)c1C`, the 50% inhibitory concentration (IC50) came to 90 nM.
Turning to `Cc1ccc(F)c([C@@H](C)[C@H](NS(=O)(=O)c2ccc3[nH]ncc3c2)c2n[nH]c(=O)o2)c1C`, the half-maximal inhibitory concentration (IC50) stood at 410 nM. Against the preceding molecule, the IC50 is about 4.6-fold higher.
`Cc1ccc(F)c([C@@H](C)[C@H](NS(=O)(=O)c2ccc(Cl)c(C(=O)O)n2)c2n[nH]c(=O)o2)c1C` returned an IC50 of 190 nM.
For `Cc1ccc(F)c([C@@H](C)[C@H](NS(=O)(=O)c2ccc(Cl)cc2OCC(F)F)c2n[nH]c(=O)o2)c1C` the value was 440 nM; for `CC(O)c1c(Cl)ccc(S(=O)(=O)N[C@H](c2n[nH]c(=O)o2)[C@H](C)c2cccc3c2CCC3)c1Cl` (some centres not stated), 170 nM.
As to `Cc1ccc(F)c([C@@H](C)[C@H](NS(=O)(=O)c2cccc3c2OCCO3)c2n[nH]c(=O)o2)c1C`, the half-maximal inhibitory concentration (IC50) amounted to 330 nM.
Regarding `Cc1ccc(F)c([C@@H](C)[C@H](NS(=O)(=O)c2ccc3[nH]nnc3c2)c2n[nH]c(=O)o2)c1C`, the 50% inhibitory concentration (IC50) came to 660 nM.
With `Cc1ccc(F)c([C@@H](C)[C@H](NS(=O)(=O)c2ccc(Cl)c(C(=O)N3CCC4(COC4)C3)n2)c2n[nH]c(=O)o2)c1C`, the concentration for half-maximal inhibition (IC50) was determined as 130 nM.
The value for `C[C@H](c1cccc2c1CCC2)[C@H](NS(=O)(=O)c1ccc(F)c(C(C)(C)O)c1F)c1n[nH]c(=O)o1` was 550 nM; that for `Cc1ccc(F)c([C@@H](C)[C@H](NS(=O)(=O)c2ccc(Cl)c(C(=O)N3CCCC3)n2)c2n[nH]c(=O)o2)c1C` was 60 nM.
For `Cc1ccc(F)c([C@@H](C)[C@H](NS(=O)(=O)c2ccc3c(c2)C(=O)CCC3)c2n[nH]c(=O)o2)c1C` the value was 350 nM; for `C[C@H](c1cccc2c1CCC2)[C@H](NS(=O)(=O)c1ccc(Br)c(C(C)(C)O)c1)c1n[nH]c(=O)o1`, 640 nM; for `Cc1ccc(F)c([C@@H](C)[C@H](NS(=O)(=O)c2ccc3[nH]c(=O)[nH]c3c2)c2n[nH]c(=O)o2)c1C`, 830 nM.
The molecule `Cc1ccc(S(=O)(=O)N[C@H](c2n[nH]c(=O)o2)[C@H](C)c2c(F)ccc(C)c2C)cc1` yielded an IC50 of 410 nM.
Molecule `Cc1ccc(F)c([C@@H](C)[C@H](NS(=O)(=O)c2c(F)cc(Cl)cc2C(=O)O)c2n[nH]c(=O)o2)c1C` yielded an IC50 of 270 nM.
Consider `Cc1ccc(F)c([C@@H](C)[C@H](NS(=O)(=O)c2ccc3c(c2)CC(=O)N3)c2n[nH]c(=O)o2)c1C`, for which the IC50 was 740 nM. This IC50 lies about 2.7-fold higher than the previous one.
`Cc1ccc(F)c([C@@H](C)[C@H](NS(=O)(=O)c2ccc(F)c3c2OCCC3=O)c2n[nH]c(=O)o2)c1C`: the half-inhibitory concentration (IC50) stood at 160 nM.
In the case of `Cc1ccc(F)c([C@@H](C)[C@H](NS(=O)(=O)c2ccc(F)c(C(C)(C)O)c2F)c2n[nH]c(=O)o2)c1C`, the concentration for half-maximal inhibition (IC50) came out at 90 nM.
`Cc1ccc(F)c([C@@H](C)[C@H](NS(=O)(=O)c2cc(C(C)(C)O)c(Cl)cc2C(N)=O)c2n[nH]c(=O)o2)c1C` gave a concentration for half-maximal inhibition (IC50) of 60 nM.
In turn, `CC(=O)OC1(C)CCOc2c(S(=O)(=O)N[C@H](c3n[nH]c(=O)o3)[C@H](C)c3c(F)ccc(Br)c3C)ccc(Cl)c21` (some centres not stated) gave a 50% inhibitory concentration (IC50) of 80 nM.
On to `Cc1ccc(F)c([C@@H](C)[C@H](NS(=O)(=O)c2ccc(Cl)c3cccnc23)c2n[nH]c(=O)o2)c1C`, for which the IC50 is 110 nM. This IC50 and that of the molecule before are within 1.5-fold of each other.
On to `Cc1ccc(F)c([C@@H](C)[C@H](NS(=O)(=O)c2ccc(Cl)c(C(=O)N3CCOCC3)n2)c2n[nH]c(=O)o2)c1C`, for which the IC50 amounted to 60 nM.
Molecule `Cc1ccc(F)c([C@@H](C)[C@H](NS(=O)(=O)c2ccc3[nH]c(=O)c(=O)[nH]c3c2)c2n[nH]c(=O)o2)c1C` registered an IC50 of 820 nM.
Consider `COc1c(S(=O)(=O)N[C@H](c2n[nH]c(=O)o2)[C@H](C)c2c(F)ccc(C)c2C)ncc(Cl)c1C(C)O` (some centres not stated), for which inhibition was half-maximal at 200 nM (IC50). Compared with the last molecule, the IC50 is about 4.1-fold lower.
In the case of `Cc1ccc(F)c([C@@H](C)[C@H](NS(=O)(=O)c2ccc3c(c2)OCCO3)c2n[nH]c(=O)o2)c1C`, the IC50 amounted to 130 nM. This IC50 is about 1.5-fold lower than that of the molecule before.
The molecule `CC(=O)OC(C)c1nc(S(=O)(=O)N[C@H](c2n[nH]c(=O)o2)[C@H](C)c2cccc3c2CCC3)ccc1Cl` (some centres not stated) came in with an IC50 of 210 nM.
In turn, `Cc1ccc(F)c([C@@H](C)[C@H](NS(=O)(=O)c2cccc3c2OCCC3(O)C(F)(F)F)c2n[nH]c(=O)o2)c1C` (some centres not stated) yielded an IC50 of 120 nM. This IC50 is about 1.8-fold lower than that of the molecule before.
`Cc1c(Br)ccc(F)c1[C@@H](C)[C@H](NS(=O)(=O)c1ccc(Cl)c2c1OCCC2=O)c1n[nH]c(=O)o1` gave an IC50 of 90 nM. This IC50 and that of the molecule before are within 1.5-fold of each other.
The value for `COC(=O)c1cc(Br)cnc1S(=O)(=O)N[C@H](c1n[nH]c(=O)o1)[C@H](C)c1c(F)ccc(C)c1C` was 450 nM.
For `Cc1ccc(F)c([C@@H](C)[C@H](NS(=O)(=O)c2ccc(Cl)c(-c3nnn[nH]3)c2)c2n[nH]c(=O)o2)c1C` the value was 280 nM; for `COc1c(S(=O)(=O)N[C@H](c2n[nH]c(=O)o2)[C@H](C)c2c(F)ccc(C)c2C)ccc(Cl)c1C(C)(C)O`, 110 nM.
As to `COC(=O)c1cc(Cl)cnc1S(=O)(=O)N[C@H](c1n[nH]c(=O)o1)[C@H](C)c1c(F)ccc(C)c1C`, the IC50 was found to be 340 nM.
For `C[C@H](c1cccc2c1CCC2)[C@H](NS(=O)(=O)c1ccc(Cl)c(C(C)(C)O)n1)c1n[nH]c(=O)o1` the value was 440 nM; for `COc1c(S(=O)(=O)N[C@H](c2n[nH]c(=O)o2)[C@H](C)c2cccc(C)c2C)ccc(Cl)c1C(C)O` (some centres not stated), 180 nM; for `Cc1ccc(F)c([C@@H](C)[C@H](NS(=O)(=O)c2ccc(Cl)c(C(=O)N3C4CCC3COC4)n2)c2n[nH]c(=O)o2)c1C`, 70 nM.
For `CCc1ccc(F)c([C@@H](C)[C@H](NS(=O)(=O)c2ccc(Cl)c(C(C)O)c2OC)c2n[nH]c(=O)o2)c1C` (some centres not stated), the IC50 was determined as 150 nM.
The value for `CC(=O)NC1CCOc2c(S(=O)(=O)N[C@H](c3n[nH]c(=O)o3)[C@H](C)c3c(F)ccc(C)c3C)ccc(Cl)c21` (some centres not stated) was 100 nM; that for `Cc1ccc(F)c([C@@H](C)[C@H](NS(=O)(=O)c2ccc(Cl)c(S(N)(=O)=O)c2)c2n[nH]c(=O)o2)c1C` was 810 nM.
For the molecule `CC(=O)c1cc(Cl)ccc1S(=O)(=O)N[C@H](c1n[nH]c(=O)o1)[C@H](C)c1c(F)ccc(C)c1C`, the 50% inhibitory concentration (IC50) stood at 270 nM.
Consider `COC(=O)c1c(F)ccc(S(=O)(=O)N[C@H](c2n[nH]c(=O)o2)[C@H](C)c2c(F)ccc(C)c2C)c1F`, for which inhibition was half-maximal at 170 nM (IC50).
`Cc1ccc(F)c([C@@H](C)[C@H](NS(=O)(=O)c2cccc3[nH]ccc23)c2n[nH]c(=O)o2)c1C` gave a half-inhibitory concentration (IC50) of 710 nM.
On to `COc1c(S(=O)(=O)N[C@H](c2n[nH]c(=O)o2)[C@H](C)c2c(F)ccc(C)c2C)ncc(Cl)c1C(C)OC(C)=O` (some centres not stated), for which the midpoint of inhibition, the IC50, lay at 430 nM.
For the molecule `Cc1ccc(F)c([C@@H](C)[C@H](NS(=O)(=O)c2cc(C(C)(C)O)c(F)cc2C(N)=O)c2n[nH]c(=O)o2)c1C`, the concentration for half-maximal inhibition (IC50) was 80 nM. This IC50 is about 5.4-fold lower than that of the molecule before.
Take `COc1c(S(=O)(=O)N[C@H](c2n[nH]c(=O)o2)[C@H](C)c2c(F)ccc3ccccc23)ccc(Cl)c1C(C)O` (some centres not stated): the IC50 was found to be 80 nM.
Regarding `Cc1ccc(F)c([C@@H](C)[C@H](NS(=O)(=O)c2ccc(Cl)c(C(=O)N3CC4CCC(C3)O4)n2)c2n[nH]c(=O)o2)c1C`, it took 30 nM to reach half-maximal inhibition (IC50).
Regarding `Cc1ccc(F)c([C@@H](C)[C@H](NS(=O)(=O)c2ccc(Cl)s2)c2n[nH]c(=O)o2)c1C`, the half-inhibitory concentration (IC50) worked out at 450 nM.
In turn, `Cc1ccc(F)c([C@@H](C)[C@H](NS(=O)(=O)c2ncc(Cl)cc2C(=O)O)c2n[nH]c(=O)o2)c1C` gave an IC50 of 500 nM.
On to `Cc1ccc(F)c([C@@H](C)[C@H](NS(=O)(=O)c2cc(C(C)(C)O)ccc2C(N)=O)c2n[nH]c(=O)o2)c1C`, for which it took 60 nM to reach half-maximal inhibition (IC50).
On to `Cc1ccc(F)c([C@@H](C)[C@H](NS(=O)(=O)c2cc(F)c(Cl)cc2C(=O)O)c2n[nH]c(=O)o2)c1C`, for which it took 960 nM to reach half-maximal inhibition (IC50).
As to `Cc1ccc(S(=O)(=O)N[C@H](c2n[nH]c(=O)o2)[C@H](C)c2c(F)ccc(C)c2C)cc1S(=O)(=O)N1CCCCC1`, inhibition was half-maximal at 470 nM (IC50).
`Cc1ccc(F)c([C@@H](C)[C@H](NS(=O)(=O)c2ccc3c(c2)N(C)CCC3)c2n[nH]c(=O)o2)c1C` returned an IC50 of 220 nM.
For `Cc1ccc(F)c([C@@H](C)[C@H](NS(=O)(=O)c2ccc3c(c2)C(C)(O)CCO3)c2n[nH]c(=O)o2)c1C` (some centres not stated) the value was 180 nM; for `COc1nc(Cl)ccc1S(=O)(=O)N[C@H](c1n[nH]c(=O)o1)[C@H](C)c1c(F)ccc(C)c1C`, 100 nM; for `COc1cc(Cl)cnc1S(=O)(=O)N[C@H](c1n[nH]c(=O)o1)[C@H](C)c1c(F)ccc(C)c1C`, 150 nM.
Molecule `COc1cc(Br)ccc1S(=O)(=O)N[C@H](c1n[nH]c(=O)o1)[C@H](C)c1cccc2c1CCC2` gave an IC50 of 590 nM. This IC50 is about 3.9-fold higher than that of the molecule before.
For `Cc1ccc(F)c([C@@H](C)[C@H](NS(=O)(=O)c2ccc(Cl)c(C(=O)N3CCC4(CC3)COC4)n2)c2n[nH]c(=O)o2)c1C`, the IC50 is 80 nM.
`CC(=O)OC1(C(F)(F)F)CCOc2c(S(=O)(=O)N[C@H](c3n[nH]c(=O)o3)[C@H](C)c3c(F)ccc(C)c3C)ccc(Cl)c21` (some centres not stated) came in with a concentration for half-maximal inhibition (IC50) of 110 nM.
`Cc1ccc(F)c([C@@H](C)[C@H](NS(=O)(=O)c2ccc(Cl)cc2C(=O)O)c2n[nH]c(=O)o2)c1C` showed an IC50 of 180 nM.
`Cc1ccc(F)c([C@@H](C)[C@H](NS(=O)(=O)c2ccc3c(c2)C(=O)CCO3)c2n[nH]c(=O)o2)c1C` gave an IC50 of 280 nM.
For `COc1c(S(=O)(=O)N[C@H](c2n[nH]c(=O)o2)[C@H](C)c2c(F)ccc(C)c2C)ccc(Cl)c1C(C)OC(C)=O` (some centres not stated) the value was 170 nM; for `Cc1ccc(F)c([C@@H](C)[C@H](NS(=O)(=O)c2ccc(Cl)c(C(=O)N3CCC4(CCC4)C3)n2)c2n[nH]c(=O)o2)c1C`, 180 nM; for `Cc1ccc(F)c([C@@H](C)[C@H](NS(=O)(=O)c2ccc(F)c(S(C)(=O)=O)c2)c2n[nH]c(=O)o2)c1C`, 190 nM.
The value for `Cc1ccc(F)c([C@@H](C)[C@H](NS(=O)(=O)c2ccc(Cl)cc2OC(F)F)c2n[nH]c(=O)o2)c1C` was 260 nM.

The values are drawn from ChEMBL document CHEMBL5729675, “Sulfonamide compound or salt thereof” (2023).
